Where a name gives a salt, the structure may show the parent alone.

Test [1] deals with T1, human cloned 5-HT6 receptors (Homo sapiens, UniProt P50406).
T1 construct: expressed in transfected cells; host or cells: HeLa cells (membranes)
Briefly: Cyclase assay (cAMP production in membranes of HeLa 5HT6 cells, antagonism of 5-HT). The settings on record: cyclase assay with 5-HT at 4xEC50, read-out: fpKi (functional pKi, antagonist potency) (converted). It counts as biochemical. As to the method:
0.5 μl of test compound in 100% dimethylsulfoxide (DMSO) was added to a white, solid 384 well assay plate (for dose response measurements the top of the concentration range is 7.5 μM final). 10 μl of washed membranes of HeLa 5HT6 cells (for preparation see WO 98/27081) in basic buffer (50 mM HEPES pH 7.4 (KOH), 1 mM MgCl2, 100 mM NaCl, 1 μl/ml 3-isobutyl-1-methylxanthine (IBMX) (Sigma-Aldrich)) was added to all wells followed by 10 μl 2×ATP buffer (100 μl/ml ATP and 1 μl/ml 3-Isobutyl-1-methylxanthine (IBMX) (Sigma-Aldrich)) with 5-HT (at a concentration equivalent to a dose response of 4×EC50). The resultant mixture was then incubated at room temperature for 30-45 minutes to allow cAMP production.
cAMP production was then measured using the DiscoveRx™ HitHunter™ chemiluminescence cAMP assay kit (DiscoveRx Corporation, 42501 Albrae Street, Fremont, Calif. 94538; Product Code: 90-0004L) or any other suitable cAMP measurement assay.
IC50 values were estimated from arbitrary designated unit (ADU) measurements from a Perkin Elmer Viewlux instrument using a four parameter logistic curve fit within EXCEL (Bowen, W. P. and Jerman, J. C. (1995), Nonlinear regression using spreadsheets. Trends in Pharmacol. Sci., 16, 413-417). Functional Ki values were calculated using the method of Cheng, Y. C. and Prussof, W. H. (Biochemical Pharmacol (1973) 22 3099-3108). pIC50 and fpKi are the negative log 10 of the molar IC50 and functional Ki respectively.
In general terms: Changes in cAMP serve as a functional read-out for many G protein-coupled receptors.

In test [2] the target is T2, human cannabinoid CB2 receptor (Homo sapiens, UniProt P34972).
T2 construct: expressed in transfected cells; host or cells: Saccharomyces cerevisiae strain MMY23
T2 sequence (P34972 whole entry): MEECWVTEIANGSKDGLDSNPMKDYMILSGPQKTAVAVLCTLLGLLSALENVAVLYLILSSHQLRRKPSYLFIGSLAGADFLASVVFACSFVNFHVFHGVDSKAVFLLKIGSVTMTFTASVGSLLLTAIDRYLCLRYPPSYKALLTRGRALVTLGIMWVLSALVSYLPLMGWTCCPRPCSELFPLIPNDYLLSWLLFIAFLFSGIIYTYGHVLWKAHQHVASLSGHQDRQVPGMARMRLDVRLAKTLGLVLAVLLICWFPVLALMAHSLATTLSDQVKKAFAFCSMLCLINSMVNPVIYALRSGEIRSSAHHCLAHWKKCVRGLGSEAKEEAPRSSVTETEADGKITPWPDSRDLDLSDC
Briefly: Cannabinoid CB2 receptor agonist activity in yeast cells expressing the human CB2 receptor (FDGlu fluorescence). It counts as cell-based. The settings on record: 24 hours at 30° C., read-out: pEC50 at the CB2 receptor (agonist activity) (converted). The source says:
Yeast (Saccharomyces cerevisiae) cells expressing the human cannabinoid CB2 receptor were generated by integration of an expression cassette into the ura3 chromosomal locus of yeast strain MMY23. This cassette consisted of DNA sequence encoding the human CB2 receptor flanked by the yeast GPD promoter to the 5′ end of CB2 and a yeast transcriptional terminator sequence to the 3′ end of CB2. MMY23 expresses a yeast/mammalian chimeric G-protein alpha subunit in which the C-terminal 5 amino acids of Gpa1 are replaced with the C-terminal 5 amino acids of human Gαi1/23 (as described in Brown et al. (2000), Yeast 16:11-22). Cells were grown at 30° C. in liquid Synthetic Complete (SC) yeast media (Guthrie and Fink (1991), Methods in Enzymology, Vol. 194) lacking uracil, tryptophan, adenine and leucine to late logarithmic phase (approximately 6 OD600/ml).
Agonists were prepared as 10 mM solutions in DMSO. EC50 values (the concentration required to produce 50% maximal response) were estimated using 4 fold dilutions of between 3- and 5-fold (BiomekFX, Beckman) into DMSO. Agonist solutions in DMSO (1% final assay volume) were transferred into black microtitre plates from NUNC Greiner (384-well). Cells were suspended at a density of 0.2 OD600/ml in SC media lacking histidine, uracil, tryptophan, adenine and leucine and supplemented with 10 mM 3-aminotriazole, 0.1M sodium phosphate pH 7.0, and 120 μM fluorescein di-β-D-glucopyranoside (FDGlu). This mixture (50 ul per well) was added to agonist in the assay plates (Multidrop 384, Labsystems). After incubation at 30° C. for 24 hours, fluorescence resulting from degradation of FDGlu to fluorescein due to exoglucanase, an endogenous yeast enzyme produced during agonist-stimulated cell growth, was determined using a fluorescence microtitre plate reader (Tecan Spectrofluor or LJL Analyst excitation wavelength: 485 nm; emission wavelength: 535 nm). Fluorescence was plotted against compound concentration and iteratively curve fitted using a four parameter fit to generate a concentration effect value.
Efficacy (Emax) was calculated from the equation
Emax=Max[compound X]−Min[compound X]/Max[HU210]−Min[HU210]×100% • where Max[compound X] and Min[compound X] are the fitted maximum and minimum respectively from the concentration effect curve for compound X, and Max[HU210] and Min[HU210] are the fitted maximum and minimum respectively from the concentration effect curve for (6aR,10aR)-3-(1,1′-Dimethylheptyl)-6a,7,10,10a-tetrahydro-1-hydroxy-6,6-dimethyl-6H-dibenzo[b,d]pyran-9-methanol (HU210; available from Tocris). Equieffective molar ratio (EMR) values were calculated from the equation
EMR=EC50[compound X]/EC50[HU210] • Where EC50 [compound X] is the EC50 of compound X and EC50 [HU210] is the EC50 of HU210. • pEC50 is the negative log of the EC50.

T1 sequence (P50406 whole entry): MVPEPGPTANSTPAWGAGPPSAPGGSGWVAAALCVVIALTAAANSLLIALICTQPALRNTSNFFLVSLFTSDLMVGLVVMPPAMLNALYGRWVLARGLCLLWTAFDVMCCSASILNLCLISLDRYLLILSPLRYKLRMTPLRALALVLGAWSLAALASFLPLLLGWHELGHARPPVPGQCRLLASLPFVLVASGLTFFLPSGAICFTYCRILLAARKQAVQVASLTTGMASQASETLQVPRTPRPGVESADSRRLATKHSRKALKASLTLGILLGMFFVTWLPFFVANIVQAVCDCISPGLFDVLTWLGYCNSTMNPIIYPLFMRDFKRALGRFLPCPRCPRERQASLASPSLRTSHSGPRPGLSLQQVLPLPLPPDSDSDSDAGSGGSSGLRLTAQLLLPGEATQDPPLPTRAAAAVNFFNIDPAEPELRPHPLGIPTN

In the case of `O=S(=O)(c1ccccc1)c1cnc2c(CN3CCC(F)(F)CC3)cccc2c1` [Example 5, 8-[(4,4-Difluoro-1-piperidinyl)methyl]-3-(phenylsulfonyl)quinoline], in test [1], the Ki is less than 100 nM. In addition, the EC50 in test [2] was less than 1 µM.
The corresponding values for `CC1CCC(C)N1Cc1cccc2cc(S(=O)(=O)c3ccccc3)cnc12` (stereo not drawn) [Example 6, 8-[(2,5-Dimethyl-1-pyrrolidinyl)methyl)-3-(phenylsulfonyl)quinoline] are less than 100 nM and no more than 10 µM.
The corresponding values for `CN(C)Cc1cccc2cc(S(=O)(=O)c3ccccc3)cnc12` [Example 7, N,N-Dimethyl-1-[3-(phenylsulfonyl)quinolin-8-yl]methanamine] are less than 100 nM and no more than 10 µM.
The corresponding values for `CC1CCCN1Cc1cccc2cc(S(=O)(=O)c3ccccc3)cnc12` (stereo not drawn) [Example 8, 8-[(2-Methylpyrrolidin-1-yl)methyl]-3-(phenylsulfonyl)quinoline] are less than 100 nM and no more than 10 µM.
For `CC(C)N(C)C(C)c1cccc2cc(S(=O)(=O)c3ccccc3)cnc12` (stereo not drawn) [Example 20, N-Methyl-N-{1-[3-(phenylsulfonyl)quinolin-8-yl]ethyl}propan-2-amine hydrochloride], the Ki in test [1] was less than 100 nM. For the same molecule, the EC50 in test [2] is less than 1 µM.
On the same counts, the results for `O=S(=O)(c1ccc(F)cc1)c1cnc2c(CN3CCCC3)cccc2c1` [Example 23, 3-[(4-Fluorophenyl)sulfonyl]-8-(1-pyrrolidinylmethyl)quinoline hydrochloride] are less than 100 nM and no more than 10 µM.
`CC(=O)N1CCN(Cc2cccc3cc(S(=O)(=O)c4ccccc4)cnc23)CC1` [Example 24, 8-[(4-acetyl-1-piperazinyl)methyl]-3-(phenylsulfonyl)quinoline hydrochloride]: in test [1], the Ki was no more than 1000 nM. Further, the EC50 in test [2] was no more than 10 µM.
On the same counts, the results for `CC(C)NCc1cccc2cc(S(=O)(=O)c3ccccc3)cnc12` [Example 25, N-{[3-(phenylsulfonyl)-8-quinolinyl]methyl}-2-propanamine hydrochloride] are less than 100 nM and less than 1 µM.
On the same counts, the results for `CNCc1cccc2cc(S(=O)(=O)c3ccccc3)cnc12` [Example 26, N-methyl-1-[3-(phenylsulfonyl)-8-quinolinyl]methanamine hydrochloride] are less than 100 nM and no more than 10 µM.
On the same counts, the results for `O=S(=O)(c1ccccc1)c1cnc2c(CN3CCCC(F)(F)C3)cccc2c1` [Example 27, 8-[(3,3-Difluoropiperidin-1-yl)methyl]-3-(phenylsulfonyl)quinoline hydrochloride] are greater than 1000 nM and less than 1 µM.
Consider `COC1CCN(Cc2cccc3cc(S(=O)(=O)c4ccccc4)cnc23)CC1` [Example 28, 8-[(4-Methoxypiperidin-1-yl)methyl]-3-(phenylsulfonyl)quinoline hydrochloride], for which, in test [1], the Ki was less than 100 nM. Also, in test [2], the EC50 is less than 1 µM.
On the same counts, the results for `CC1CCCCN1Cc1cccc2cc(S(=O)(=O)c3ccccc3)cnc12` (stereo not drawn) [Example 29, 8-[(2-Methyl-1-piperidinyl)methyl]-3-(phenylsulfonyl)quinoline hydrochloride] are no more than 1000 nM and no more than 10 µM.
On the same counts, the results for `CC1CCCN(Cc2cccc3cc(S(=O)(=O)c4ccccc4)cnc23)C1` (stereo not drawn) [Example 30, 8-[(3-Methyl-1-piperidinyl)methyl]-3-(phenylsulfonyl)quinoline hydrochloride] are less than 100 nM and less than 1 µM.
The corresponding values for `O=S(=O)(c1ccccc1)c1cnc2c(CN3CCC4(CC3)OCCO4)cccc2c1` [Example 31, 8-(1,4-Dioxa-8-azaspiro[4.5]dec-8-ylmethyl)-3-(phenylsulfonyl)quinoline hydrochloride] are less than 100 nM and no more than 10 µM.
On to `O=S1(=O)CCN(Cc2cccc3cc(S(=O)(=O)c4ccccc4)cnc23)CC1` [Example 32, 8-[(1,1-Dioxido-4-thiomorpholinyl)methyl]-3-(phenylsulfonyl)quinoline hydrochloride], for which the Ki in test [1] is no more than 1000 nM. Besides, the EC50 in test [2] was less than 1 µM.

The values above are taken from US20090012056A1, “Quinoline Compounds Capable of Binding the Cb2 and/or the 5-Ht6 Receptor” (GLAXO GROUP LIMITED, priority 2005, published 2009).
